The values below come from patent publication US6593480B2 (Abbott Laboratories, priority 1999, dated 2003).

The target of data set [1] is T1, Human glucocorticoid receptors (Homo sapiens, UniProt P04150).
T1 construct: made in house; host or cells: Sf9 insect cells, recombinant baculovirus (BAC-TO-BAC)
T1 sequence (P04150 1-777): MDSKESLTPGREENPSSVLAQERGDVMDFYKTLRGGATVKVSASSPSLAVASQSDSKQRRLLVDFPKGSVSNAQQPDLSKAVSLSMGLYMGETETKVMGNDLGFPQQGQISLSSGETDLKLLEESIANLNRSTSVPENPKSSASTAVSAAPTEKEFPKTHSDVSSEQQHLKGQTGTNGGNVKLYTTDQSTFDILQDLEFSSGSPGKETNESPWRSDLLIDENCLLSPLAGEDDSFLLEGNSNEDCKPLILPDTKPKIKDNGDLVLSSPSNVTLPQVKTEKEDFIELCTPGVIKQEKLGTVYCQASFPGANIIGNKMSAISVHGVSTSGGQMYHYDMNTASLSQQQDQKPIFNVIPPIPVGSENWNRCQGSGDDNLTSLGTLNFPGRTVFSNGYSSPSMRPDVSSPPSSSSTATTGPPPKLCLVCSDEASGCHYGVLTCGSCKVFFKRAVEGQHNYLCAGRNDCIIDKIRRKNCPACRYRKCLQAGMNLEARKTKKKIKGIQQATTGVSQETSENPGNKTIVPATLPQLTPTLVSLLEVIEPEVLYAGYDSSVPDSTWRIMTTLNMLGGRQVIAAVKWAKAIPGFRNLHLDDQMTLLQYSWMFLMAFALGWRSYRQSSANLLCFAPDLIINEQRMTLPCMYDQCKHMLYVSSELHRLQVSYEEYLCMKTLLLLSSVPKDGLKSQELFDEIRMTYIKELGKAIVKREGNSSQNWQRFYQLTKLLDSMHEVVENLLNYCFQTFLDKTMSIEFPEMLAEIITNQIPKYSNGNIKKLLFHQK
Nature of the data set: Radioligand filter binding assay, displacement of 3(H)-dexamethasone from human glucocorticoid receptor cytosol. As to conditions: 1.7 μM test compound, inhibition of 3(H)-dex binding to hGR; for inhibition at 1.7 µM: read-out: GR BINDING (% Inhibition @ 1.7 μM).
Procedure: Dexamethasone hereafter referred to as dex was purchased from SIGMA. […] Human glucocorticoid receptors were extracted from Sf9 cells infected with a recombinant baculovirus transfer vector containing the cloned hGR genes. […] The recombinant baculovi, uses expressing hGR were amplified and used to infect Sf9 cells. Infected cells were harvested 48 hrs post infection. […] The concentration of hGR in the extract was measured as specific ^3(H)-dex binding with the G25-assay as described in J. Steroid Biochem. Molec. […] The extract was aliquoted and stored at −70° C.
The filter binding assay: Dilution series of the test compounds and dex as reference were made from 10 mM (1 mM dex) stock solutions in DMSO. 10 μl of the dilutions was added in duplicates to the wells. The cell extracts were diluted 10 fold in EPMo +MTG buffer (1 mM EDTA, HPO4 20 mM (pH8), 6 mM MTG). […] 110 μl of the diluted ^3(H)-dex were added to the wells. The final concentration of hGR in the experiment was estimated to 1 nM. All preparations were made in ambient temperature (20-25° C.) on ice and with +4° C. temperated buffers. The plates were incubated over night at +4° C. (15-20hrs).
The incubation was stopped by filtration through GF/B filter on the Tomtec Cellharvester. The filtration on the Tomtec Cellharvester was programmed as follows: 1) Preparation before filtration with EP buffer (1 mM EDTA 20 mM HPO4 (pH8)) 2×(Wash/Asp 0.6 sec., Asp 0.5 sec.); 2) Prewet of GF/B filter with EP+PEI buffer (EP buffer, 0.3% Polyesthylenimine) (Asp 0.8 sec.). 3) Filtration/harvesting of the 96-well incubation plate 3×(Wash/Asp 0.6 sec., Asp 0.5 sec.). The GF/B filter was dried for at least 1 hr at 65° C. A MeltiLex scintillation wax was melted onto the filter with the Microsealer. The filter was placed in a samplebag, which was thereafter trimmed with scissors to fit the filter cassette. The cassette were placed in the Microbeta and measured for 1 min/position, returning ccpm (conrected counts per minute).
The Microbeta-instrument generates the mean cpm (counts per minute) value/minute and corrects for individual variations between the detectors thus generating corrected cpm values.

The target of data set [2] is T2, progesterone receptor (PR) (Homo sapiens, UniProt P06401).
T2 sequence (P06401 1-933): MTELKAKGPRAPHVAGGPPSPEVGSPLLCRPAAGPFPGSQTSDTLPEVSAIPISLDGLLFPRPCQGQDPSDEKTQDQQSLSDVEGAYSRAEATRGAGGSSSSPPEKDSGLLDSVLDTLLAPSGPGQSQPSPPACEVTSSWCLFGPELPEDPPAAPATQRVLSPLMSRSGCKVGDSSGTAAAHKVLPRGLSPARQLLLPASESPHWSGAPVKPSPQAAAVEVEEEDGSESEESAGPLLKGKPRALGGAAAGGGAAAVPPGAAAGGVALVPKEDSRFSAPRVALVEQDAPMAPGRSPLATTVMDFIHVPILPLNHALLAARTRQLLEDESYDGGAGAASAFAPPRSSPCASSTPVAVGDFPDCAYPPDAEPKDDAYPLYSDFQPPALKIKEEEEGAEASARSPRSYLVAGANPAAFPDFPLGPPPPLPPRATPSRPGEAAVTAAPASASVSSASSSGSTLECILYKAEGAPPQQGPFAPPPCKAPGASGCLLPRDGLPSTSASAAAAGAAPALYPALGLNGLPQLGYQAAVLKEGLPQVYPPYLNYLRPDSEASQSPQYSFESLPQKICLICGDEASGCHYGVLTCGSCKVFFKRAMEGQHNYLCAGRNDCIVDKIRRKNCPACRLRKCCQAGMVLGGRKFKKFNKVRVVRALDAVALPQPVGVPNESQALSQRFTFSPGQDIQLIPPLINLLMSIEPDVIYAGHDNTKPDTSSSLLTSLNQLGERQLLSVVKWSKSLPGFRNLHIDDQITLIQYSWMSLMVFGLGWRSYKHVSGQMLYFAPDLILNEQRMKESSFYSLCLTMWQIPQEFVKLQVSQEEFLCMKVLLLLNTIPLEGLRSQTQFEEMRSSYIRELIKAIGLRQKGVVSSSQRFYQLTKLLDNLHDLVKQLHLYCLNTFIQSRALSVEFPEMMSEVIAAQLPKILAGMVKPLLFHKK
Nature of the data set: Radioligand binding assay with progesterone receptor cytosol (similar protocol). An excerpt:
Methods for Radioligand Binding Studies with Human Glucocorticoid and Progesterone Receptor Cytosol
A similar protocol was employed to measure affinity of the compounds of the present invention for progesterone receptor (PR).

Data set [3] has as its system obese diabetic db/db transgenic mice. The conditions noted are these: cited from earlier work.

What is called melting point is the temperature, or range, at which the solid turns liquid. For orientation: inhibition means the drop in the measured response relative to a control, in per cent. The IC50 is the concentration that inhibits the measured activity by half. The low end stands for inhibition by little substance, the high end for a need for much substance.

Where only a bound is given, the exact number is not on record here.

For the compound `COc1cccc2c1-c1ccc(NS(C)(=O)=O)c(C)c1C(c1cccc(C(F)(F)F)c1)O2` (stereo not drawn) [Example 1, (1-methoxy-6-(3-trifluoromethyl)phenyl-7-methyl-6H-dibenzo(b,d)pyran-8-yl)methanesulfonamide], the melting point lay within 217 to 218 °C. The inhibition at 1.7 µM in data set [1] was found to be 82.1%. The compound further returned an IC50 in data set [2] of 5.63 µM.
Consider `CC#C[C@]1(O)CC[C@H]2[C@@H]3CCC4=CC(=O)CCC4=C3[C@@H](c3ccc(N(C)C)cc3)C[C@@]21C` [mifepristone], for which the “mRNA levels of PEPCK and glucose-6-phosphate in the liver” value in data set [3] (liver, db/db mice) was “reduces”. For the same compound, the “reduction of plasma glucose levels” value in data set [3] (obese diabetic db/db transgenic mice) is on record as 50%.
Consider “(1-ethynyl-6-phenyl-6H-dibenzo(b,d)pyran-8-yl)methanesulfonamide [Example 36]”, for which the “GR BINDING (% Inhibition @ 1.7 μM)” value in data set [1] amounted to 95.0%. In addition, in data set [2], the IC50 stood at 2.24 µM.
Consider “(1-methoxy-6-(4-carboethoxyphenyl)-6H-dibenzo(b,d)pyran-8-yl)methanesulfonamide [Example 52]”, for which the “GR BINDING (% Inhibition @ 1.7 μM)” value in data set [1] was 92.2%. In data set [2], the 50% inhibitory concentration (IC50) was above 10 µM.
Taken in the same sequence, the figures for “(1-methoxy-6-(5-chlorothien-2-yl)-6H-dibenzo(b,d)pyran-8-yl)methanesulfonamide [Example 58]” were 94.6% and 0.524 µM.
The corresponding values for “(1-methoxy-2-hydroxy-6-phenyl-6H-dibenzo(b,d)pyran-8-yl)methanesulfonamide [Example 65]” are 94.9% and 2.84 µM.
Regarding “(1-methoxy-6-(5-chloropent-1-yl)-6H-dibenzo(b,d)pyran-8-yl)methanesulfonamide [Example 75]”, the “GR BINDING (% Inhibition @ 1.7 μM)” value in data set [1] is given as 90.1%. Moreover, the IC50 in data set [2] is 1.85 µM.
As for “(1-methoxy-6-(3,4-dichlorophenyl)-6H-dibenzo(b,d)pyran-8-yl)methanesulfonamide [Example 63]”, the “GR BINDING (% Inhibition @ 1.7 μM)” value in data set [1] came to 98.5%. The compound further displayed an IC50 in data set [2] of 1.2 µM.
As to `COCCCCOc1cccc(C2Oc3cccc(OC)c3-c3ccc(NS(C)(=O)=O)cc32)c1` (stereo not drawn) [Example 95, N-{1-methoxy-6-[3-(4-methoxybutoxy)phenyl]-6H-benzo[c]chromen-8-yl}methanesulfonamide], the inhibition at 1.7 µM in data set [1] was 90%. Besides, the half-maximal inhibitory concentration (IC50) in data set [2] was above 1 µM.
As to “(1-methoxy-6-allyl-6H-dibenzo(b,d)pyran-8-yl)methanesulfonamide [Example 53]”, the “GR BINDING (% Inhibition @ 1.7 μM)” value in data set [1] worked out at 92.9%. The IC50 in data set [2] amounted to 1.42 µM.
The corresponding values for “(1-difluoromethoxy-6-allyl-6H-dibenzo(b,d)pyran-8-yl)-methanesulfonamide [Example 31]” are 90.0% and 0.079 µM.
Taken in the same sequence, the figures for “(1-methoxy-6-(4-chlorophenyl)-6H-dibenzo(b,d)pyran-8-yl)methanesulfonamide [Example 61]” were 91.3% and 3.99 µM.
Taken in the same sequence, the figures for “(1-methoxy-6-(2-thienyl)-6H-dibenzo(b,d)pyran-8-yl)methanesulfonamide [Example 54]” were 94.1% and 0.45 µM.
For the compound “(1-methoxy-6-(3-chloroprop-2-en-1-yl)-6H-dibenzo(b,d)pyran-8-yl)methanesulfonamide [Example 73]”, the “GR BINDING (% Inhibition @ 1.7 μM)” value in data set [1] was found to be 88.3%. This compound returned an IC50 in data set [2] above 1 µM.
For `COc1cccc2c1-c1ccc(NS(C)(=O)=O)cc1[C@H](c1ccccc1)O2` [Example 24, 6S-(1-methoxy-6-phenyl-6H-dibenzo(b,d)pyran-8-yl)methanesulfonamide], the inhibition at 1.7 µM in data set [1] amounted to 88.9%. This compound also came in with an IC50 in data set [2] of 0.8 µM.
On to “(1,2-methylenedioxy-6-phenyl-6H-dibenzo(b,d)pyran-8-yl)methanesulfonamide [Example 66]”, for which the “GR BINDING (% Inhibition @ 1.7 μM)” value in data set [1] is given as 91.6%. Further, the IC50 in data set [2] worked out at 0.222 µM.
As to `COc1cccc2c1-c1ccc(NS(C)(=O)=O)cc1C(c1ccc(Oc3ccc(Br)cc3)cc1)O2` (stereo not drawn) [Example 153], in data set [1], the “GR BINDING (% Inhibition @ 1.7 μM)” value turned out to be 92.8%. Besides, in data set [2], the half-inhibitory concentration (IC50) is above 10 µM.
For `COc1cccc2c1-c1ccc(NS(C)(=O)=O)cc1C(CCCCCCC#N)O2` (stereo not drawn) [Example 48], the inhibition at 1.7 µM in data set [1] came out at 90.8%. In addition, the IC50 in data set [2] was above 10 µM.
As for “(1-methoxy-6-(4-chlorobutyl)-6H-dibenzo(b,d)pyran-8-yl)methanesulfonamide [Example 57]”, the “GR BINDING (% Inhibition @ 1.7 μM)” value in data set [1] is reported as 94.9%. The IC50 in data set [2] is 1.09 µM.
